In EP3394070B1, “CRYSTALLINE FORMS OF QUINOLONE ANALOGS AND THEIR SALTS” (Senhwa Biosciences, Inc., priority 2015, dated 2017):
Where a name gives a salt, the structure may show the parent alone.

What was measured:
[1] = Stability (HPLC purity) of acid salts in water, stirred at 42 °C for 3 days; format: physicochemical; settings: for Purity % a/a after 3 days (HPLC): in water, stirred at 42 °C for 3 days
Method: (§1) Crystalline forms (i.e., salts and free base) of the present invention were analyzed by total area normalization (TAN).
The mixture was stirred at 42 °C for 3 days and each solution was analyzed by HPLC for concentration and purity. Table 11 Solubility and Purity of Acid Addition Salts

[2] = Solid-form stability of acid salts stored at elevated temperature (HPLC purity); format: physicochemical; settings: for Purity % a/a after 3 days at 80 °C (HPLC): solid form stored at 80 °C
Method: as §1
Stability of the acid salts were also tested by storing the salts (solid forms) at an elevated temperature of 45 and 80 °C. Table 12 Stability of Acid Addition Salts

[3] = physchem; settings: 42 °C, water, thermodynamic from solid
[4] = water, 72 h

Cc1cnc(CNC(=O)c2c(=O)c3ccc(N4CCCN(C)CC4)nc3n3c2sc2ccccc23)cn1 [Free Base, 2-(4-Methyl-[1,4]diazepan-1-yl)-5-oxo-5H-7-thia-1,11b-diaza-benzo[c]fluorene-6-carboxylic acid (5-methyl-pyrazin-2-ylmethyl)-amide]
Purity % a/a after 3 days (HPLC) [1]: 99.58 % a/a | Purity % a/a after 3 days at 80 °C (HPLC) [2]: 99.67 % a/a | solubility at 3 days [3]: < 100 mg/mL

Cc1cnc(CNC(=O)c2c(=O)c3ccc(N4CCCN(C)CC4)nc3n3c2sc2ccccc23)cn1 [HCl]
Starting Purity % a/a (HPLC) ([1]; before the 3 day test (time zero)): 98.78 % a/a | Purity % a/a after 3 days (HPLC) [1]: 88.62 % a/a | Purity % a/a after 3 days at 45 °C (HPLC) ([2]; solid form stored at 45 °C): 98.48 % a/a | Purity % a/a after 3 days at 80 °C (HPLC) [2]: 98.71 % a/a | Aqueous Solubility (Calculated) [4]: > 100 mg/mL
